The source of these data is PubChem BioAssay (NCI).

Some test systems named below: OVCAR-5 ovarian; HCT-116 colon; HOP-62 NSCLC; A498 renal; U251 CNS; SR leukemia; NCI-H226 lung; MALME-3M melanoma; SNB-19 CNS; SF-268 CNS.
What all share (assay): NCI-60 cell line screen, 48 h

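In this assay, cells in 96-well plates receive the compound at five concentrations for 48 hours. Endpoints are linearly interpolated between the surrounding concentrations. The concentration for 50% growth inhibition is given as GI50. TGI is the concentration that stops growth completely.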

Turning to `Cc1ccc(C(=O)O/N=C2/CCCCC2CN(C)C)cc1` (configuration not stated), the TGI in the experiment with OVCAR-5 ovarian, in the experiment on HCT-116 colon, in the experiment with HOP-62 NSCLC, in the experiment with A498 renal, in the experiment on U251 CNS and in the experiment on SR leukemia was over 100 µM throughout. Further, the TGI in the experiment with NCI-H226 lung and in the experiment with MALME-3M melanoma was over 100 µM each time.
Take `CCCCCCCCCCCCCC[P+](CCCCCC)(CCCCCC)CCCCCC`: the GI50 was 0.267 µM in the experiment on OVCAR-5 ovarian; 0.0606 µM in the experiment on HCT-116 colon; 0.229 µM with HOP-62 NSCLC; 0.0384 µM in the experiment on U251 CNS; 0.0196 µM with SR leukemia; 0.0688 µM in the experiment on SNB-19 CNS. Besides, the GI50 in the experiment on MALME-3M melanoma is 0.0271 µM. For the same compound, the TGI in the experiment on HCT-116 colon is over 100 µM; in the experiment on A498 renal, 1.03 µM; in the experiment with U251 CNS, 1.29 µM; in the experiment on SR leukemia, 0.0608 µM; with SNB-19 CNS it was over 100 µM; in the experiment with MALME-3M melanoma it was 0.0721 µM.
`O=C(Cn1c(=O)c(-c2ccccc2)nc2ccccc21)c1cccnc1`: the GI50 in the experiment on OVCAR-5 ovarian, with HCT-116 colon, in the experiment on HOP-62 NSCLC, in the experiment on U251 CNS, in the experiment on SR leukemia and in the experiment with SF-268 CNS was over 100 µM in each case. In addition, the GI50 with NCI-H226 lung, in the experiment with SNB-19 CNS and in the experiment on MALME-3M melanoma was over 100 µM in each case. The TGI in the experiment with OVCAR-5 ovarian, with HCT-116 colon, in the experiment with HOP-62 NSCLC, in the experiment with U251 CNS, in the experiment on SR leukemia and with SF-268 CNS was over 100 µM in each case. Besides, the TGI in the experiment on NCI-H226 lung, in the experiment on SNB-19 CNS and with MALME-3M melanoma was over 100 µM each time.
Turning to `Cn1ccnc1C(c1nccn1C)C(C)(C)[N+](=O)[O-]`, the TGI in the experiment on HCT-116 colon, with HOP-62 NSCLC, with A498 renal, in the experiment on U251 CNS, in the experiment with SR leukemia and in the experiment on SF-268 CNS was over 100 µM in each case.
For `ON(CCc1ccncc1)Cc1ccccc1`, the TGI with OVCAR-5 ovarian, in the experiment with HCT-116 colon, in the experiment with HOP-62 NSCLC, in the experiment with A498 renal, in the experiment on SR leukemia and in the experiment with SF-268 CNS was over 100 µM in each case. Besides, the TGI in the experiment with NCI-H226 lung, with SNB-19 CNS and in the experiment with MALME-3M melanoma was over 100 µM in each case.
On to `C=CCC12CCC(=O)C=C1CCC1(C2)OCCO1` (configuration not stated), for which the TGI with HCT-116 colon, in the experiment on HOP-62 NSCLC, with A498 renal, in the experiment with U251 CNS, in the experiment with SR leukemia and with SF-268 CNS was over 100 µM each time. The TGI in the experiment with NCI-H226 lung, with SNB-19 CNS and in the experiment on MALME-3M melanoma was over 100 µM in each case.
Regarding `OCCN(CCO)c1cccc(N(CCO)CCO)c1`, the TGI in the experiment on HCT-116 colon, with HOP-62 NSCLC, in the experiment on A498 renal, in the experiment with U251 CNS, in the experiment on SR leukemia and in the experiment on SF-268 CNS was over 100 µM each time. In the experiment with SNB-19 CNS, this compound registered a TGI of over 100 µM.
In the case of `Cc1ccc2c[c]1[Hg][CH2]COS2(=O)=O`, the GI50 in the experiment on OVCAR-5 ovarian is 18.7 µM; in the experiment on HCT-116 colon it was 16.6 µM; with HOP-62 NSCLC it was 71.7 µM; in the experiment with A498 renal, 15.8 µM; with U251 CNS, 17.5 µM; with SF-268 CNS it was 18 µM. Besides, the GI50 was 19.8 µM with NCI-H226 lung, over 100 µM in the experiment on SNB-19 CNS and 19.8 µM in the experiment on MALME-3M melanoma. The TGI was 37.4 µM in the experiment on OVCAR-5 ovarian; 30.2 µM in the experiment with HCT-116 colon; over 100 µM in the experiment with HOP-62 NSCLC; 29.3 µM in the experiment with A498 renal; 31.3 µM in the experiment with U251 CNS; 32.4 µM with SF-268 CNS. Also, the TGI is 43.5 µM with NCI-H226 lung, over 100 µM in the experiment on SNB-19 CNS and 34 µM in the experiment on MALME-3M melanoma.
As for `O=C(Nc1c(Cl)cc([N+](=O)[O-])cc1Cl)C(=O)C1C(=O)NC(=S)NC1=O`, the TGI in the experiment with OVCAR-5 ovarian, with HCT-116 colon, in the experiment on HOP-62 NSCLC, with A498 renal, with U251 CNS and with SF-268 CNS was over 100 µM each time. In addition, the TGI in the experiment with NCI-H226 lung, with SNB-19 CNS and in the experiment with MALME-3M melanoma was over 100 µM in each case.
For `N=S(=O)(c1ccccc1)c1ccccc1[N+](=O)[O-]` (configuration not stated), the TGI with OVCAR-5 ovarian, with HCT-116 colon, in the experiment on HOP-62 NSCLC, in the experiment on A498 renal, in the experiment on U251 CNS and with SR leukemia was over 100 µM in each case. Also, the TGI in the experiment with NCI-H226 lung, in the experiment with SNB-19 CNS and with MALME-3M melanoma was over 100 µM throughout.
As for `OCCCCC#Cc1ccccc1C#Cc1ccccc1F`, the GI50 was 16.2 µM with OVCAR-5 ovarian; 16.2 µM with HCT-116 colon; 12 µM with HOP-62 NSCLC; 26.9 µM in the experiment on A498 renal; 16 µM in the experiment on U251 CNS; 25.3 µM with SF-268 CNS. The figures for the GI50 in the experiment with NCI-H226 lung, in the experiment with SNB-19 CNS and in the experiment with MALME-3M melanoma were 24 µM, 17.5 µM and 26.1 µM, respectively. The TGI with OVCAR-5 ovarian was 33.3 µM; in the experiment with HCT-116 colon, 29.9 µM; with HOP-62 NSCLC, 26.1 µM; in the experiment on A498 renal, 82.5 µM; in the experiment with U251 CNS, 33.6 µM; in the experiment with SF-268 CNS, 62.4 µM. For the same compound, the TGI with NCI-H226 lung came to 49.8 µM; in the experiment on SNB-19 CNS, 36.8 µM; with MALME-3M melanoma, 46.9 µM.
Take `CCCCCCCCCCCCCCCC(=O)OCC1OC(n2cnc3c(=S)nc(N)[nH]c32)C(OC(=O)CCCCCCCCCCCCCCC)C1OC(=O)CCCCCCCCCCCCCCC` (configuration not stated): the GI50 in the experiment on OVCAR-5 ovarian is 3.4 µM; in the experiment with HCT-116 colon, 1.8 µM; in the experiment on HOP-62 NSCLC, 1.78 µM; with A498 renal it was over 25.1 µM; in the experiment with U251 CNS, 24.1 µM; in the experiment on SF-268 CNS it was 7.9 µM. The GI50 with NCI-H226 lung is 8.59 µM; in the experiment on SNB-19 CNS it was over 50 µM; in the experiment with MALME-3M melanoma, over 28.3 µM. For the same compound, the TGI is over 39.3 µM with OVCAR-5 ovarian; over 50 µM in the experiment with HCT-116 colon; over 35 µM with HOP-62 NSCLC; over 50 µM in the experiment with A498 renal; over 50 µM in the experiment on U251 CNS; over 50 µM with SF-268 CNS. Moreover, the TGI with NCI-H226 lung, in the experiment with SNB-19 CNS and with MALME-3M melanoma was over 50 µM throughout.
